How the values were obtained:
[1] = test system: Rubus fruticosus protoplasts; assay: Elicitation of an oxidative burst: generation of H2O2 (pyranine quenching); type: cell-based; conditions: 25° C.
Protocol: Preparation of Rubus fruticosus protoplasts according to Vargas-Rechia (1998). The protoplast yield is of the order of 70 to 85% of the initial number of cells used; the viability of the protoplasts, of the order of 90 to 95%, was checked using Evans blue indicator.
H2O2 assay according to Apostol et al. (1989). Incubation at different temperatures of 1.10^6 protoplasts in microplate wells in the presence of 2 μM pyranine λex 405 nm, λcm 512 nm), of the elicitor (0 to 100 μM): 2′-fucosyl-lactose (compound A), xyloglucan XXFGol, corresponding to the reduced form of fucosylated nonasaccharide of which the sugar X4 is in reduced form (compound B). The variations in pyranine fluorescence (ΔF512 min^−1) allow H2O2 assay.
Evaluation of the experimental data: The reaction rate is given by (ΔF512 min^−1). At least three kinetic curves are plotted per sample and per experimental condition. One point on the graph corresponds to the slope of the regression curve deduced from at least 6 kinetic curves.
The oxidative “burst” is evaluated according to the “quenching ” of the pyranine at 25° C.; the 100% reference value corresponds to the fluorescence in the controls (non-elicited protoplast suspensions)

[2] = test system: glutathione-reductase (EC 1.6. 4.2); assay: Elicitation of glutathione-reductase activity in protoplasts; type: cell-based, Rubus fruticosus L.; conditions: for Optimal glutathione reductase elicitation response (100% = non-elicited controls): at the optimal dose
Description: Preparation of Rubus fruticosus L. protoplasts according to Vargas-Rechia et al. (1998). The protoplast yield is of the order of 70 to 85% of the initial number of cells used; the viability of the protoplasts, of the order of 90 to 95%, was checked using Evans blue indicator.
Glutathione-reductase (GR) activity assay according to Jahnke L S et al. (1991):
GSSG (glutathione in oxidized form) is reduced to GSH (glutathione in reduced form) by the enzyme glutathione-reductase (EC 1.6. 4.2); the reaction is coupled with the oxidation of NADPH to NADP in the catalytic cycle (glutathione, glutathione-reductase, NADPH). The glutathione-reductase activity is measured by evaluating the formation of NADP in the medium, which is carried out by monitoring the absorbance reduction at 340 nm.
Test: 4.10^6 protoplasts in 1 ml of Tris-HCl buffer (pH 4.8) are incubated at 10° C., 15° C., 25° C. in the presence of the elicitor (0 to 100 μM): 2′-fucosyl lactose (compound A), xyloglucan XXFGol (compound B). After interaction for 10 minutes, an enzymatic extract is prepared according to Jahnke et al. (1991), and a 16.000 g aliquot of the supernatant (equivalent to 1 μg of proteins) is introduced into the pH 7.8 reaction medium (80 mM K2PO4, 500 μM GSSG, 150 μM NADPH, 200 μM DTPA) for the glutathione-reductase activity assay; the A340 recording is carried out for 1 minute using a Beckman D U 640 spectrophotometer.
Evaluation of the experimental data: The reaction rate is given by ΔA340 min^−1. At least three kinetic curves are plotted per experimental condition and per sample. One point on the graph corresponds to the value of the slope of the regression curve deduced from at least 6 kinetic curves.
The elicitation response is evaluated by measuring the formation of NADP at 340 nm. The 100% reference value corresponds to the NADP content in the controls (non-elicited protoplast suspensions).

[3] = test system: vine; assay: Induction of cold resistance in the vine (cold protection index after foliar spraying); type: in vivo, vine (variety Chenin); conditions: vine plants
Protocol: Plants originating from different vine varieties (Chenin, Grolleau, Carignan, Cabernet sauvignon, Cabernet Sauvignon, Pinot noir, Merlot, Chardonnay, Gamay etc.) are used for the study. Each sample, comprising 5 to 10 plants, is treated with foliar spraying at the end of the bud development (starting from vegetative stage 7 on the BBCH scale), or during the inflorescence development period (starting from vegetative stage 12) or at the start of flowering (as from stage 19), with the elicitor (oligomer: XXFG; derivative: 2′-fucosyl lactose) in solution at a variable dose (0.03 mg/l ≦dose≦3.3 mg/l; the spraying of 2.5 ml of solution per plant is carried out using a hand sprayer (deviation of +/−1%).
After treatment, the plants are exposed to cold stress of variable duration and intensity (for example, temperature varying from −2° C. to −5° C.; duration less than or equal to 240 minutes).
After exposure to the cold, the plants are placed in a climatic chamber at 20° C. with a 12-hour day/night alternation. […] The effects of the cold are evaluated by observing the foliar necroses induced by frost and the plants are kept for several months in order to monitor their subsequent development.
The proportion P (%) of foliar necroses observed 3 hours or 24 hours or 48 hours or 72 hours after the cold stress is counted, and the results are expressed by the protection index I=(100-P) %. […]

C[C@@H]1O[C@@H](O[C@H]2[C@H](O[C@H]3[C@H](O)[C@@H](O)[C@H](O)O[C@@H]3CO)O[C@H](CO)[C@H](O)[C@@H]2O)[C@@H](O)[C@H](O)[C@@H]1O [compound A, α-L-Fuc(1→2)β-D-Gal(1→4)β-D-Glc]
Peroxide accumulation, effect of temperature ([1]; 10 nM, 20° C., 15° C., 10° C.): lower at a low temperature | Elicitor dose of optimal response, generation of H2O2 ([1]; pyranine quenching): 10 nM | Optimal response, generation of H2O2 (100% = non-elicited controls) ([1]; at the optimal dose): 225% | Elicitor dose of optimal glutathione reductase elicitation response ([2]; 10° C.): 25 nM | Optimal glutathione reductase elicitation response (100% = non-elicited controls) ([2]; 10° C.): 2500% | Elicitor dose of optimal glutathione reductase elicitation response ([2]; 15° C.): 100 nM | Optimal glutathione reductase elicitation response (100% = non-elicited controls) ([2]; 15° C.): 780% | Glutathione reductase elicitation response ([2]; 25° C.): no significant response | Cold-resistance-inducer effect, efficiency compared with XXFG [3]: equal or slightly lower efficiency

Reference: patent US20040023924A1, “Use of xyloglucan polymers and oligomers, and derivative compounds, as phytosanitary products and biofertilizers” (priority 2000, published 2004)
